One data set relates to MCF7 cells. As to the kind of experiment: CFZ potency increase, ratio of CC50 of CFZ alone / with compound. The format is cell-based, human. To be noted: MCF7, compound at 15 μM. The protocol:
Human epithelial MCF7 cells (mammary gland adenocarcinoma) are maintained in EMEM medium supplemented with GlutaMAX™, 10% fetal bovine serum, 0.01 mg insulin and 1% penicillin-streptomycin.
(§1) We developed a cell-based, high content assay allowing the rapid detection and quantification of apoptotic cells. Caspase-3/7 activity was detected in real-time using the NucView™ 488 Caspase-3 substrate (Biotium), where the caspase-3/7 substrate peptide sequence DEVD is attached to a nucleic acid dye. The NucView™ 488 reagent crosses the plasma membrane to enter the cytoplasm, where the dye is unable to bind to DNA and remains non-fluorescent. Once the substrate has been cleaved by activated caspase-3/7 in apoptotic cells, the high-affinity DNA dye is released and migrates to the cell nucleus to stain the nucleus with a bright green fluorescence. All cell nuclei were also labeled with Hoechst 33342 (Ozyme).
(§2) For HeLa and MCF7 cells, briefly, cells were seeded in 384-microtiter well plate (1500 HeLa cells or 5000 MCF7 cells in 40 μL full medium per well) and let to attach overnight. Then the compound of the invention and the RE stressor were transferred to the cell culture plate using an Echo555 liquid handler (Labcyte) and 30 μL medium containing NucView™ and Hoechst 33342 were added. Final NucView™ 488 and Hoechst 33342 concentrations were 1 μM and 20 ng/mL, respectively. DMSO content was maintained at 0.2%. The microplates were incubated at 37° C. and 5% CO2 in an automated LiCONiC STR240 UB cell incubator, and images were acquired at various times at 405 nm and 488 nm with the high-resolution automated confocal microscope INCell 6000 (GE). Four fields per well were read with the 20× objective in a confocal mode. The BioCel workstation was managed by VWorks automation control software (Agilent).
(§3) For all cells, Columbus software (Perkin) was used for image quantification and analysis. First, Hoechst 33342 staining was used for an automated detection of nuclei, in which the mean fluorescence intensity for NucView™ 488 was quantified. Inspection of control cells at initial time was used to set a threshold level of NucView™ 488 fluorescence to separate non apoptotic cells from apoptotic cells. Finally, for each well, the result was expressed as percentage of apoptotic cells in the total cell population. CC50 values were calculated from concentration-response curves by a nonlinear regression analysis at four parameters using Excel Fit or GraphPad Prim softwares.
(§4) Activity=(% of apoptotic cells with cytotoxic agent in combination with compound of the invention)/(% of apoptotic cells with cytotoxic agent alone). • Ratio of CC50: The CC50 of the cytotoxic agent was calculated in absence and in presence of a compound of the invention.
(§5) Activity=(CC50 of agent alone)/(CC50 of agent with compound). • Ratio of AUC. Activity=(Area of the dose-concentration curve of cytotoxic agent combined with one concentration of compound)/(Area of the dose-concentration curve of cytotoxic agent alone). (Lehar J. et al, 2008 (molecular systems biology 4:215)).

In another data set the test system is OPM2 cells. The description is as above. Type of data set: cell-based, human. In outline: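 OPM2 cells (12,000/well, 0.2% DMSO) treated with compound plus carfilzomib, with NucView 488 caspase-3/7 substrate (1 μM) and Hoechst 33342, 37 °C; confocal imaging over time gives % apoptotic cells. CFZ CC50 from 4-parameter fits alone and with compound; activity = CC50 alone / CC50 with compound.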

Another data set relates to HeLa cells. The description is as above. Type of data set: cell-based, human. To be noted: compound at 7.5 μM.
From the text: Human HeLa cells (uterine cervical carcinoma) are maintained in DMEM medium supplemented with GlutaMAX™, 10% fetal bovine serum and 1% penicillin-streptomycin.
as §1, §2, §3, §4, §5

In a further data set the test system is TLM1 cells. As to the kind of experiment: X-ray radiation in combination with compound, propidium iodide dead cells, ratio of corrected AUC. The format is cell-based, canine. The protocol: Canine melanoma TLM-1 cells are maintained in DMEM medium supplemented with GlutaMAX™, 10% fetal bovine serum, 1× Hepes and 1% penicillin-streptomycin.
TLM-1 cells were seeded with the BioTek MicroFlo™ dispenser in μClear® black 384-well plates (Greiner) at the density of 20,000 cells/mL in 50 μL. Compounds for pre-treatment were added 2 h after the seeding, using an Echo 550 (Labcyte). The next day, cells were washed five times with 40 μL media without phenol red with a plate washer (Hydrospeed, Tecan). Cells were irradiated with 4, 6, 8, 12, 16, 20 and 24 Gray (Gy). […] This step was repeated every 72 h after radiation. Plates were incubated at 37° C. and 5% CO2. […] 4 images per well were collected. Images were analyzed with Columbus software (Perkin Elmer). In this system we used predefined building blocks to measure different parameters on nuclei detected. We applied a threshold based on propidium iodide intensity in nuclei of controls to select and count dead cells. By dividing the number of dead cells by the number of nuclei detected we obtained the percentage of dead cells. AUC were determined in one experiment with triplicate incubates on percentage of cells labelled with propidium iodide and were corrected by the percentage of cells labelled with propidium iodide at 0 Gy. Ratio of AUC corrected was determined as followed: Activity=(Area of the dose-concentration curve of cytotoxic agent combined with one concentration of compound corrected by the effect of the compound alone at 0Gy)/(Area of the dose-concentration curve of radiation alone corrected by the effect of the vehicle at 0Gy).

Setting [1] is: OPM2, compound at 7.5 μM (Table 5).
[2] abbreviates: OPM2, compound at 7.5 μM (Table 6).

Regarding `O=C(C[C@@H](Cc1ccc2ccccc2c1)n1cc(CC(=O)Nc2ccc(F)cc2)nn1)NO` [Compound 58, 3-{4-[(4-Fluoro-phenylcarbamoyl)-methyl]-[1,2,3]triazol-1-yl}-N-hydroxy-4-naphthalen-2-yl-butyramide], the “Activity: ratio (CC50 of CFZ alone)/(CC50 of CFZ in combination with compound of the invention)” value in the data set on MCF7 cells amounted to 2.0; in the data set with OPM2 cells (setting [1]) it was 1.4; in the data set with OPM2 cells (setting [2]) it was 1.4; in the data set with HeLa cells, 2.7.

`O=C(C[C@@H](C/C=C/c1ccccc1)n1cc(CNC(=O)c2ccc(F)c(F)c2)nn1)NO` [Compound 75, 3,4-difluoro-N-[[1-[(E,1R)-1-[2-(hydroxyamino)-2-oxo-ethyl]-4-phenyl-but-3-enyl]triazol-4-yl]methyl]benzamide]: the “Activity: ratio (CC50 of CFZ alone)/(CC50 of CFZ in combination with compound of the invention)” value with MCF7 cells is reported as 2.1; in the data set with OPM2 cells (setting [1]), 1.7; in the data set on OPM2 cells (setting [2]), 1.7; in the data set on HeLa cells it was 4.3.

Take `CC(C)C[C@H](NCc1cn([C@@H](CC(=O)NO)Cc2ccc3ccccc3c2)nn1)C(=O)OC(C)(C)C` [Compound 20]: the “Activity: ratio (CC50 of CFZ alone)/(CC50 of CFZ in combination with compound of the invention)” value is reported as 3.4 in the data set on MCF7 cells, 2.1 in the data set on OPM2 cells (setting [1]), 2.1 with OPM2 cells (setting [2]) and 6.3 in the data set with HeLa cells.

On to `O=C(NCc1cn([C@H](Cc2ccc3ccccc3c2)C(=O)NO)nn1)c1ccc(F)cc1` [Compound 43, (R)-4-Fluoro-N-[1-(1-hydroxycarbamoyl-2-naphthalen-2-yl-ethyl)-1H-[1,2,3]triazol-4-ylmethyl]-benzamide], for which the “Activity: ratio (CC50 of CFZ alone)/(CC50 of CFZ in combination with compound of the invention)” value with MCF7 cells worked out at 2.6; with OPM2 cells (setting [1]), 1.7; in the data set with OPM2 cells (setting [2]) it was 1.7; in the data set on HeLa cells, 2.6.

In the case of `O=C(C[C@@H](Cc1ccc2ccccc2c1)n1cc(CCC(=O)Nc2ccc(F)c(F)c2)nn1)NO` [Compound 81, N-(3,4-difluorophenyl)-3-[1-[3-(hydroxyamino)-1-(2-naphthylmethyl)-3-oxo-propyl]triazol-4-yl]propanamide], the “Activity: ratio (CC50 of CFZ alone)/(CC50 of CFZ in combination with compound of the invention)” value in the data set on MCF7 cells amounted to 2.5; with OPM2 cells (setting [1]), 2.3; with OPM2 cells (setting [2]) it was 2.3; in the data set on HeLa cells, 3.5.

Regarding `O=C(C[C@@H](Cc1ccc2ccccc2c1)n1cc(CNC(=O)c2ccc(F)c(F)c2)nn1)NO` [Compound 54, 3,4-difluoro-N-[[1-[(1R)-3-(hydroxyamino)-1-(2-naphthylmethyl)-3-oxo-propyl]triazol-4-yl]methyl]benzamide], the “Activity: ratio (CC50 of CFZ alone)/(CC50 of CFZ in combination with compound of the invention)” value with MCF7 cells is 2.2; with OPM2 cells (setting [1]), 1.8; in the data set with OPM2 cells (setting [2]), 1.8; in the data set on HeLa cells, 2.3.

In the case of `O=C(C[C@@H](Cc1ccc2ccccc2c1)n1cc(CNC(=O)c2ccc(F)c(Cl)c2)nn1)NO` [Compound 62, 3-chloro-4-fluoro-N-[[1-[(1R)-3-(hydroxyamino)-1-(2-naphthylmethyl)-3-oxo-propyl]triazol-4-yl]methyl]benzamide], the “Activity: ratio (CC50 of CFZ alone)/(CC50 of CFZ in combination with compound of the invention)” value was determined as 2.6 in the data set on MCF7 cells, 1.6 in the data set with OPM2 cells (setting [1]), 1.6 with OPM2 cells (setting [2]) and 3.0 in the data set with HeLa cells.

On to `O=C(CC(Cc1ccc2ccccc2c1)c1nc(CNC(=O)c2ccc(F)cc2)no1)NO` (stereo not shown) [Compound 27, 4-fluoro-N-[5-(1-hydroxycarbamoylmethyl-2-naphthalen-2-yl-ethyl)-[1,2,4]oxadiazol-3-ylmethyl]-benzamide], for which the “Activity: ratio (CC50 of CFZ alone)/(CC50 of CFZ in combination with compound of the invention)” value in the data set with MCF7 cells is reported as 2.8; in the data set on OPM2 cells (setting [1]) it was 2.4; with OPM2 cells (setting [2]) it was 2.4; with HeLa cells, 3.0.

Regarding `CC(NC(=O)c1ccc(F)c(F)c1)c1cn([C@@H](CC(=O)NO)Cc2ccc3ccccc3c2)nn1` (stereo in doubt) [Compound 86, 3,4-Difluoro-N-{1-[1-(1(R)-hydroxycarbamoylmethyl-2-naphthalen-2-yl-ethyl)-1H-[1,2,3]triazol-4-yl]-(R)-ethyl}-benzamide], the “Activity: ratio (CC50 of CFZ alone)/(CC50 of CFZ in combination with compound of the invention)” value in the data set with MCF7 cells amounted to 1.7; in the data set on OPM2 cells (setting [1]) it was 1.7; in the data set with OPM2 cells (setting [2]) it was 1.7; in the data set with HeLa cells it was 2.6.

Consider `O=C(C[C@@H](Cc1ccc(-c2ccccc2)cc1)n1cc(CNC(=O)c2ccc(F)cc2)nn1)NO` [Compound 32, (R)—N-[1-(1-biphenyl-4-ylmethyl-2-hydroxycarbamoyl-ethyl)-1H-[1,2,3]triazol-4-ylmethyl]-4-fluoro-benzamide], for which the “Activity: ratio (CC50 of CFZ alone)/(CC50 of CFZ in combination with compound of the invention)” value amounted to 2.7 with MCF7 cells, 1.9 in the data set on OPM2 cells (setting [1]), 1.9 in the data set with OPM2 cells (setting [2]) and 4.5 in the data set with HeLa cells.

Turning to `CC(NC(=O)c1ccc(F)c(F)c1)c1cn([C@@H](CC(=O)NO)Cc2ccc3c(c2)CCCC3)nn1` (stereo partly drawn) [Compound 168, 3,4-difluoro-N-(1-(1-((R)-4-(hydroxyamino)-4-oxo-1-(5,6,7,8-tetrahydronaphthalen-2-yl)butan-2-yl)-1H-1,2,3-triazol-4-yl)ethyl)benzamide], the “Potency of X-ray radiations in combination with compound (in words)” value with TLM1 cells (TLM1) is “increase the potency”. For the same compound, the “Activity: ratio of corrected AUC of X-ray radiation in combination with compound / corrected AUC of X-ray radiation alone” value in the data set on TLM1 cells (TLM1, compound at 30 μM) was 2.4. Besides, in the data set with OPM2 cells (setting [1]), the “Activity: ratio (CC50 of CFZ alone)/(CC50 of CFZ in combination with compound of the invention)” value is 2.8.
